# From patent US8846947B2, “Benzimidazoles and related analogs as sirtuin modulators” (GlaxoSmithKline LLC, priority 2008, dated 2014)
# Where a name gives a salt, the structure may show the parent alone. Read-outs that look alike come from different tables or passages of the source.
# Target: T1, SIRT1 (Homo sapiens, UniProt Q96EB6)
# T1 sequence (Q96EB6 1-747): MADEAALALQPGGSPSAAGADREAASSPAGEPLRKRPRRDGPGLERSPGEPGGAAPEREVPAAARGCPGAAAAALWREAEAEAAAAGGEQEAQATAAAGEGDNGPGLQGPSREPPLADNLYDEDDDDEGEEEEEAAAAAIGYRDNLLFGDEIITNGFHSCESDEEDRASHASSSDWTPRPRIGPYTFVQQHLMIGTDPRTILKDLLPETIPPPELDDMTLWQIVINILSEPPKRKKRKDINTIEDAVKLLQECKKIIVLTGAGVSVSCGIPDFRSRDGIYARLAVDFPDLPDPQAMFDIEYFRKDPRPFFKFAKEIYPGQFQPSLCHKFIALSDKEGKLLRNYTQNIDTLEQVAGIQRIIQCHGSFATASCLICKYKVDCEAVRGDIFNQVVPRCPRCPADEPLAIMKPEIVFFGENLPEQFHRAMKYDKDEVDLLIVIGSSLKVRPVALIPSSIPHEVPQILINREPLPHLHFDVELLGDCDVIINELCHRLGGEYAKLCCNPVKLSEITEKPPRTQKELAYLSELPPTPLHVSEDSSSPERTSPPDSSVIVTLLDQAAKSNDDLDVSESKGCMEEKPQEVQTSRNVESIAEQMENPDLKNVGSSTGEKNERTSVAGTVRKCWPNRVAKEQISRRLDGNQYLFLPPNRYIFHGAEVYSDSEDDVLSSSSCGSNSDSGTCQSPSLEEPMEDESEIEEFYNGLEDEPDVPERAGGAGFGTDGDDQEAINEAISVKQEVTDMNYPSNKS
# Experiment: Mass spectrometry based SIRT1 deacetylase activation assay (acetylated p53-derived peptide substrate)
# Format: biochemical
# [1] = 0.5 μM peptide substrate, 120 μM βNAD+, 10 nM SIRT1, 25 minutes at 25° C.
# [2] = 0.5 μM peptide substrate, 120 μM βNAD+, 10 nM SIRT1, 25 min at 25° C.
# [3] = 0.5 μM peptide substrate, 120 μM βNAD+, 10 nM SIRT1, 25 min at 25° C., read-out: EC1.5
Structure (SMILES),EC1.5 [1],Fold Act. (percent maximum fold activation) [1],EC1.5,Fold Act. (percent maximum fold activation),Fold Act. (percent maximum fold activation) [2],EC1.5 [3] [nM]
O=C(Nc1ccccn1)c1cc(N2CCOCC2)cc2[nH]c(-c3ccccc3C(F)(F)F)nc12 [Compound 629],A (EC1.5<1.0 uM),A (Fold activation >200%),,,,
O=C(N[C@H]1CCNC1)c1cccc2[nH]c(-c3cccc(C(F)(F)F)c3)nc12 [Compound 301],,,C (EC1.5 >25 uM),B (Fold Activation <200%),,
O=C(Nc1ccncc1)c1cccc2[nH]c(-c3ccnn3-c3ccccc3)nc12 [Compound 310],,,A (EC1.5<1.0 uM),A (Fold activation >200%),,
O=C(Nc1cccc2[nH]c(-c3ccccc3C(F)(F)F)nc12)c1cccnc1 [Compound 365],,,B (EC1.5 1-25 uM),A (Fold activation >200%),,
O=C(Nc1cc[n+]([O-])cc1)c1cccc2[nH]c(-c3cc(F)ccc3C(F)(F)F)nc12 [Compound 322],,,A (EC1.5<1.0 uM),A (Fold activation >200%),,
O=C(Nc1nccs1)c1cc(N2CCOCC2)cc2[nH]c(-c3ccc(Cl)cc3C(F)(F)F)nc12 [Compound 640],A (EC1.5<1.0 uM),A (Fold activation >200%),,,,
O=C(Nc1nccs1)c1cccc2[nH]c(-c3cc(C(F)(F)F)ccc3F)nc12 [Compound 218],,,B (EC1.5 1-25 uM),A (Fold activation >200%),,
O=C(Nc1cccnc1)c1cncc2[nH]c(-c3cc(F)ccc3C(F)(F)F)nc12 [Compound 655],A (EC1.5<1.0 uM),A (Fold activation >200%),,,,
N#Cc1cccc(-c2nc3c(C(=O)Nc4nccs4)cccc3[nH]2)c1 [Compound 211],,,B (EC1.5 1-25 uM),A (Fold activation >200%),,
O=C(Nc1ccccn1)c1cc(F)cc2nc(-c3ccc(Cl)cc3C(F)F)[nH]c12 [Compound 823],A (EC1.5<1.0 uM),A (Fold activation >200%),,,,
Cc1cnc(NC(=O)c2cncc3[nH]c(-c4cc(F)ccc4C(F)(F)F)nc23)s1 [Compound 657],A (EC1.5<1.0 uM),A (Fold activation >200%),,,,
Cc1cnc(NC(=O)c2cccc3[nH]c(-c4ccccc4C(F)F)nc23)s1 [Compound 515],,,,,A (Fold activation >200%),< 1000
O=C(Nc1ccccn1)c1cccc2[nH]c(-c3cccc(N4CCOCC4)c3)nc12 [Compound 289],,,A (EC1.5<1.0 uM),A (Fold activation >200%),,
"O=C(Nc1cccc(N2CCOCC2)n1)c1cccc2[nH]c(-c3ccc(Cl)cc3C(F)(F)F)nc12 [Compound 868, 2-(4-chloro-2-(trifluoromethyl)phenyl)-N-(6-morpholinopyridin-2-yl)-1H-benzo[d]imidazole-4-carboxamide]",A (EC1.5<1.0 uM),A (Fold activation >200%),,,,
O=C(Nc1cccnc1)c1cncc2[nH]c(-c3ccccc3C(F)(F)F)nc12 [Compound 637],A (EC1.5<1.0 uM),A (Fold activation >200%),,,,
Cc1nc(-c2ccccc2)sc1-c1nc2c(C(=O)Nc3cccnc3)cccc2[nH]1 [Compound 410],,,,,B (Fold Activation <200%),< 1000
O=C(NC1CCOCC1)c1cccc2[nH]c(-c3ccccc3C(F)(F)F)nc12 [Compound 421],,,,,B (Fold Activation <200%),> 25000
O=C(Nc1cccnc1)c1cc(N2CCOCC2)cc2[nH]c(-c3ccc(F)cc3C(F)F)nc12 [Compound 751],A (EC1.5<1.0 uM),A (Fold activation >200%),,,,
O=C(Nc1cccnc1)c1cccc2[nH]c(-c3ccccc3C(F)(F)F)nc12 [Compound 243],,,A (EC1.5<1.0 uM),A (Fold activation >200%),,
O=C(Nc1ccc(CN2CCCC2)cn1)c1cccc2[nH]c(-c3cc(F)ccc3C(F)(F)F)nc12 [Compound 625],A (EC1.5<1.0 uM),A (Fold activation >200%),,,,
CN1CCOc2cc(-c3nc4c(C(=O)Nc5ccccn5)cccc4[nH]3)cnc21 [Compound 439],,,,,B (Fold Activation <200%),> 25000

Structure (SMILES),EC1.5 [1],Fold Act. (percent maximum fold activation) [1],EC1.5,Fold Act. (percent maximum fold activation),Fold Act. (percent maximum fold activation) [2],EC1.5 [3] [nM]
O=C(Nc1ccccc1)c1cccc2[nH]c(-c3ccc(Cl)cc3C(F)(F)F)nc12 [Compound 754],A (EC1.5<1.0 uM),A (Fold activation >200%),,,,
O=C(Nc1nccs1)c1cccc2[nH]c(-c3cc(F)cc(C(F)(F)F)c3)nc12 [Compound 210],,,B (EC1.5 1-25 uM),B (Fold Activation <200%),,
Cc1nc(NC(=O)c2cccc3[nH]c(-c4cc(F)ccc4C(F)(F)F)nc23)sc1C [Compound 377],,,A (EC1.5<1.0 uM),A (Fold activation >200%),,
Cc1cc(NC(=O)c2cccc3[nH]c(-c4ccc(N5CCOCC5)cc4C(F)(F)F)nc23)n(C)n1 [Compound 592],,,,,A (Fold activation >200%),< 1000
CCCN1CCc2cc(-c3nc4c(C(=O)Nc5nccs5)cccc4[nH]3)ccc21 [Compound 444],,,,,B (Fold Activation <200%),> 25000
Cc1ccc(-c2nc3c(C(=O)Nc4nc(CN5CCOCC5)cs4)cccc3[nH]2)cn1 [Compound 843],A (EC1.5<1.0 uM),A (Fold activation >200%),,,,
O=C(Nc1cccc(CN2CCOCC2)n1)c1cccc2[nH]c(-c3cccc(F)c3)nc12 [Compound 851],A (EC1.5<1.0 uM),A (Fold activation >200%),,,,
O=C(Nc1cccc(OC[C@@H](O)CO)c1)c1cccc2[nH]c(-c3ccccc3C(F)F)nc12 [Compound 700],A (EC1.5<1.0 uM),A (Fold activation >200%),,,,
Cc1cnc(NC(=O)c2cccc3[nH]c(-c4ccccc4OCCN4CCOCC4)nc23)s1 [Compound 475],,,,,A (Fold activation >200%),1000 to 25000
C[C@@H]1CN(c2cccc(-c3nc4c(C(=O)Nc5ccccn5)cccc4[nH]3)c2)C[C@H](C)O1 [Compound 577],,,,,A (Fold activation >200%),< 1000
O=C(Nc1nccs1)c1cccc2[nH]c(-c3cccc(-c4ccccc4)c3)nc12 [Compound 222],,,C (EC1.5 >25 uM),B (Fold Activation <200%),,
O=C(Nc1ccccn1)c1cncc2[nH]c(-c3ccc(N4CCCC4)cc3C(F)F)nc12 [Compound 801],A (EC1.5<1.0 uM),A (Fold activation >200%),,,,
"O=C(Nc1nccs1)c1cccc2[nH]c(-c3ccc(N4CCNCC4)nc3)nc12 [Compound 251, 2-(6-(piperazin-1-yl)pyridin-3-yl)-N-(thiazol-2-yl)-1H-benzo[d]imidazole-4-carboxamide hydrochloride]",,,A (EC1.5<1.0 uM),A (Fold activation >200%),,
O=C(Nc1nc(CN2CCOCC2)cs1)c1cccc2[nH]c(-c3ccc(Cl)cc3C(F)F)nc12 [Compound 849],A (EC1.5<1.0 uM),A (Fold activation >200%),,,,
CS(=O)(=O)c1cc(Cl)ccc1-c1nc2c(C(=O)Nc3cccnc3)cccc2[nH]1 [Compound 521],,,,,A (Fold activation >200%),1000 to 25000
Cc1cc(C)nc(NC(=O)c2cccc3[nH]c(-c4cc(F)ccc4C(F)(F)F)nc23)c1 [Compound 379],,,A (EC1.5<1.0 uM),A (Fold activation >200%),,
O=C(Nc1nccs1)c1cccc2[nH]c(-c3cccc(OC4CCNC4)c3)nc12 (stereo not drawn) [Compound 462],,,,,A (Fold activation >200%),< 1000
CC(C)N1CCN(CCOc2ccccc2-c2nc3c(C(=O)Nc4nccs4)cccc3[nH]2)CC1 [Compound 485],,,,,A (Fold activation >200%),1000 to 25000
O=C(Nc1nccs1)c1cccc2[nH]c(-c3cccc(C(F)(F)F)c3)nc12 [Compound 202],,,A (EC1.5<1.0 uM),A (Fold activation >200%),,
CS(=O)(=O)c1ccc(-c2nc3c(C(=O)Nc4ccccn4)cccc3[nH]2)cc1 [Compound 406],,,,,A (Fold activation >200%),1000 to 25000
O=C(Nc1nccs1)c1cccc2[nH]c(-c3cccc4c3OC(F)(F)O4)nc12 [Compound 427],,,,,A (Fold activation >200%),< 1000
